Experimental data taken from the supplement of paper PMC11208160.

Assay: recombinant UMI read abundance after kanamycin selection (control-corrected) (log10(CPM+1)); higher = more efficient recombination; extreme values may be limits of the assay; sequences stand for … in AGTGCAGAGAAAATCGGCCAGTTTTCTCTGCCTGCAGTCCGCATGCCGTGGGACCCCTTGGGTTCTAACCTGTTGCCTAGATTTATGCAGCGGACTGCCTTTCTCCCAAAGTGATAAACCGG…AGGTTGGTTTCACT; site = the 11-nt donor
Outline: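 Counts of recombinant UMIs were reported as log10(CPM+1). Before that, they were converted to CPM, averaged over replicates and scaled using control-derived factors. They came from PCR across the donor–target junction after Escherichia coli carrying the pair library and target plasmid was plated on IPTG (0.07 mM) plus kanamycin, or unselected, in two replicates each.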
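Also: IS621 bridge recombinase in Escherichia coli cells against a fixed T5 target plasmid.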

| Sequence | recombinant UMI read abundance (log10) |
| --- | --- |
| CGTTGTCCATGGACCGGTTTTCCCGGTAATCCGTATTTGCT (site CGTTGTCCTAG) | 0.968 |
| CGTTGTTCATGGACCGGTTTTCCCGGTAATCCGTATTTGTA (site CGTTGTTCTTA) | 2.19 |
| CGTTTGGCATGGACCGGTTTTCCCGGTAATCCGTATTTGAT (site CGTTTGGCTAA) | 0.0113 |
| CGTTTGGCATGGACCGGTTTTCCCGGTAATCCGTATTTGAT (site CGTTTGGCTAC) | 0.0714 |
| CGTTTGGCATGGACCGGTTTTCCCGGTAATCCGTATTTGAT (site CGTTTGGCTAG) | 1.09 |
| CGTTTGGCATGGACCGGTTTTCCCGGTAATCCGTATTTGAT (site CGTTTGGCTAT) | 2.22 |
| CTAAACTCATGGACCGGTTTTCCCGGTAATCCGTATTTGAA (site CTAAACTCTTT) | 3.08 |
| CTAACCCCATGGACCGGTTTTCCCGGTAATCCGTATTTGTA (site CTAACCCCTTA) | 1.67 |
| CTAACCGCATGGACCGGTTTTCCCGGTAATCCGTATTTGTT (site CTAACCGCTAA) | 1.6 |
| CTAACTTCATGGACCGGTTTTCCCGGTAATCCGTATTTGCA (site CTAACTTCTTG) | 2.08 |
| CTAAGGGCATGGACCGGTTTTCCCGGTAATCCGTATTTGAT (site CTAAGGGCTAT) | 2.15 |
| CTAATATCATGGACCGGTTTTCCCGGTAATCCGTATTTGAC (site CTAATATCTGT) | 2.69 |
| CTAATATCATGGACCGGTTTTCCCGGTAATCCGTATTTGAC (site CTACTATCTGT) | 0 |
| CTAATATCATGGACCGGTTTTCCCGGTAATCCGTATTTGAC (site CTAGTATCTGT) | 2.29 |
| CTAATATCATGGACCGGTTTTCCCGGTAATCCGTATTTGAC (site CTATTATCTGT) | 1.3 |
| CTAATATCATGGACCGGTTTTCCCGGTAATCCGTATTTGAG (site CTAATATCTCT) | 3.07 |
| CTAATATCATGGACCGGTTTTCCCGGTAATCCGTATTTGAG (site CTAGTATCTGT) | 0 |
| CTAATGACATGGACCGGTTTTCCCGGTAATCCGTATTTGAT (site CTAATGACTAT) | 1.69 |
| CTAATGACATGGACCGGTTTTCCCGGTAATCCGTATTTGCA (site CTAATGACTTG) | 2.01 |
| CTACCAACATGGACCGGTTTTCCCGGTAATCCGTATTTGGA (site CTACAAACTTC) | 0 |
| CTACCAACATGGACCGGTTTTCCCGGTAATCCGTATTTGGA (site CTACCAACTTC) | 0.959 |
| CTACCAACATGGACCGGTTTTCCCGGTAATCCGTATTTGGA (site CTACGAACTTC) | 0 |
| CTACCAACATGGACCGGTTTTCCCGGTAATCCGTATTTGGA (site CTACTAACTTC) | 0.0192 |
| CTACCATCATGGACCGGTTTTCCCGGTAATCCGTATTTGCT (site CGATCATCTAG) | 0 |
| CTACCATCATGGACCGGTTTTCCCGGTAATCCGTATTTGCT (site CTACCATCTAG) | 2.35 |

| Sequence | recombinant UMI read abundance (log10) |
| --- | --- |
| CTACCCGCATGGACCGGTTTTCCCGGTAATCCGTATTTGCT (site CTACCCGCTAG) | 1.43 |
| CTACGCACATGGACCGGTTTTCCCGGTAATCCGTATTTGAG (site CTACGCACTCT) | 1.29 |
| CTACGCTCATGGACCGGTTTTCCCGGTAATCCGTATTTGAT (site CTACGCTCTAT) | 2.86 |
| CTACTAACATGGACCGGTTTTCCCGGTAATCCGTATTTGTA (site CTACTAACTTA) | 2.03 |
| CTACTAACATGGACCGGTTTTCCCGGTAATCCGTATTTGTA (site CTACTAACTTC) | 0.53 |
| CTACTAACATGGACCGGTTTTCCCGGTAATCCGTATTTGTA (site CTACTAACTTG) | 1.51 |
| CTACTAACATGGACCGGTTTTCCCGGTAATCCGTATTTGTA (site CTACTAACTTT) | 1.92 |
| CTACTCACATGGACCGGTTTTCCCGGTAATCCGTATTTGGG (site CTACTCACTCC) | 0.286 |
| CTACTCCCATGGACCGGTTTTCCCGGTAATCCGTATTTGGC (site CTACTCCCTGC) | 1.59 |
| CTACTCTCATGGACCGGTTTTCCCGGTAATCCGTATTTGTA (site CTACTCTCTTA) | 3.26 |
| CTACTCTCATGGACCGGTTTTCCCGGTAATCCGTATTTGTA (site CTCCTCTCTTA) | 1.19 |
| CTACTCTCATGGACCGGTTTTCCCGGTAATCCGTATTTGTA (site CTGCTCTCTTA) | 1.32 |
| CTACTCTCATGGACCGGTTTTCCCGGTAATCCGTATTTGTA (site CTTCTCTCTTA) | 1.42 |
| CTACTGTCATGGACCGGTTTTCCCGGTAATCCGTATTTGTA (site CTACTGTCTTA) | 3.13 |
| CTAGGTACATGGACCGGTTTTCCCGGTAATCCGTATTTGAC (site ATAGGTACTGT) | 0 |
| CTAGGTACATGGACCGGTTTTCCCGGTAATCCGTATTTGAC (site CTAGGTACTGT) | 2.1 |
| CTAGGTACATGGACCGGTTTTCCCGGTAATCCGTATTTGAC (site GTAGGTACTGT) | 0 |
| CTAGGTACATGGACCGGTTTTCCCGGTAATCCGTATTTGAC (site TTAGGTACTGT) | 0 |
| CTAGTAACATGGACCGGTTTTCCCGGTAATCCGTATTTGAG (site CTAGTAACTCT) | 2.89 |
| CTAGTAACATGGACCGGTTTTCCCGGTAATCCGTATTTGAG (site CTAGTATCTGT) | 0 |
| CTAGTAACATGGACCGGTTTTCCCGGTAATCCGTATTTGTC (site CTAGTAACTGA) | 2.78 |
| CTAGTAACATGGACCGGTTTTCCCGGTAATCCGTATTTGTC (site CTAGTATCTGT) | 0 |
| CTAGTACCATGGACCGGTTTTCCCGGTAATCCGTATTTGAC (site CTAGTAACTGT) | 0 |
| CTAGTACCATGGACCGGTTTTCCCGGTAATCCGTATTTGAC (site CTAGTACCTGT) | 0 |
| CTAGTACCATGGACCGGTTTTCCCGGTAATCCGTATTTGAC (site CTAGTAGCTGT) | 0.415 |

| Sequence | recombinant UMI read abundance (log10) |
| --- | --- |
| CTAGTACCATGGACCGGTTTTCCCGGTAATCCGTATTTGAC (site CTAGTATCTGT) | 2.88 |
| CTAGTATCATGGACCGGTTTTCCCGGTAATCCGTATTTGAA (site CTAGTATCTAT) | 2.59 |
| CTAGTATCATGGACCGGTTTTCCCGGTAATCCGTATTTGAA (site CTAGTATCTCT) | 2.4 |
| CTAGTATCATGGACCGGTTTTCCCGGTAATCCGTATTTGAA (site CTAGTATCTGT) | 1.91 |
| CTAGTATCATGGACCGGTTTTCCCGGTAATCCGTATTTGAA (site CTAGTATCTTT) | 2.92 |
| CTAGTATCATGGACCGGTTTTCCCGGTAATCCGTATTTGAG (site CTAGTATCTAT) | 2.35 |
| CTAGTATCATGGACCGGTTTTCCCGGTAATCCGTATTTGAG (site CTAGTATCTCT) | 2.61 |
| CTAGTATCATGGACCGGTTTTCCCGGTAATCCGTATTTGAG (site CTAGTATCTGT) | 1.68 |
| CTAGTATCATGGACCGGTTTTCCCGGTAATCCGTATTTGAG (site CTAGTATCTTT) | 2.29 |
| CTAGTATCATGGACCGGTTTTCCCGGTAATCCGTATTTGTG (site CTAGTATCTCA) | 2.97 |
| CTAGTATCATGGACCGGTTTTCCCGGTAATCCGTATTTGTG (site CTAGTATCTGT) | 0 |
| CTAGTCACATGGACCGGTTTTCCCGGTAATCCGTATTTGGG (site CAAGTCACTCC) | 0.00773 |
| CTAGTCACATGGACCGGTTTTCCCGGTAATCCGTATTTGGG (site CCAGTCACTCC) | 0.0093 |
| CTAGTCACATGGACCGGTTTTCCCGGTAATCCGTATTTGGG (site CGAGTCACTCC) | 0.00732 |
| CTAGTCACATGGACCGGTTTTCCCGGTAATCCGTATTTGGG (site CTAGTCACTCC) | 0.00791 |
| CTAGTGCCATGGACCGGTTTTCCCGGTAATCCGTATTTGAC (site CTAGTATCTGT) | 0.948 |
| CTAGTGCCATGGACCGGTTTTCCCGGTAATCCGTATTTGAC (site CTAGTGCCTGT) | 0.95 |
| CTAGTTTCATGGACCGGTTTTCCCGGTAATCCGTATTTGAC (site CTAGTATCTGT) | 2.19 |
| CTAGTTTCATGGACCGGTTTTCCCGGTAATCCGTATTTGAC (site CTAGTCTCTGT) | 1.74 |
| CTAGTTTCATGGACCGGTTTTCCCGGTAATCCGTATTTGAC (site CTAGTGTCTGT) | 0 |
| CTAGTTTCATGGACCGGTTTTCCCGGTAATCCGTATTTGAC (site CTAGTTTCTGT) | 2.05 |
| CTATAACCATGGACCGGTTTTCCCGGTAATCCGTATTTGGA (site CTATAACCTTC) | 0.0031 |
| CTATCATCATGGACCGGTTTTCCCGGTAATCCGTATTTGCT (site CAATCATCTAG) | 0.957 |
| CTATCATCATGGACCGGTTTTCCCGGTAATCCGTATTTGCT (site CCATCATCTAG) | 0.932 |
| CTATCATCATGGACCGGTTTTCCCGGTAATCCGTATTTGCT (site CGATCATCTAG) | 0 |
